Tests used:
[1] = test system: HSV-1 infected mice (zoster-associated pain); experiment: Mouse model of herpes zoster, pain-associated reaction to paintbrush stimulus after oral administration; assay type: in vivo
Text: Epidermis of the right hind leg (lower part of knee joint) of shaven female C57BL/6J mice was chopped with a bundle of ten 26G injection needles, and coated with a solution (1×10^6 pfu/site) of herpes simplex virus Type I (HSV-1), which as well as varicella zoster virus, belongs to Herpesviridae (family) (Takasaki I, et al., Anesthesiology, 2002, 96:1168-1174). Seven days after infection, the spinal cord was collected after perfusion of 4% neutral buffered paraformaldehyde, replaced with 30% sucrose solution, embedded with OCT compound to prepare frozen slices. A specimen in cross section was prepared at the fifth lumbar level of the spinal cord, and was subjected to a fluorescent double immunostaining according to Alexa Fluor 488, 546 using OX42 antibody, which has widely been used as a microglia marker, and P2X4 receptor antibody. […] The pain-associated reaction of the hindpaw on the HSV-1 infection side was measured and evaluated referring to the response to a contact stimulant using a paint-brush. The mouse was placed into a cage for measurement, and accustomed to the environment for 1 hour or more. The plantar surface of the right hindpaw was vertically stroked with the paintbrush along the direction from toe to heal, and this was repeated six times at intervals of several seconds. The pain reaction was evaluated as follows: • Score 0: No reaction • Score 1: Lifting of hind leg • Score 2: Sharp evasion reaction and flinching of hind leg Each individual pain score was calculated by averaging six scores.

P2X4 receptor = biological target: T1, P2X4 receptor (Homo sapiens, UniProt Q99571); conditions: reported in cited WO documents and Nagata K, Imai T et al., Molecular Pain, 2009, 5:20; cited from earlier work
T1 sequence (Q99571 1-388): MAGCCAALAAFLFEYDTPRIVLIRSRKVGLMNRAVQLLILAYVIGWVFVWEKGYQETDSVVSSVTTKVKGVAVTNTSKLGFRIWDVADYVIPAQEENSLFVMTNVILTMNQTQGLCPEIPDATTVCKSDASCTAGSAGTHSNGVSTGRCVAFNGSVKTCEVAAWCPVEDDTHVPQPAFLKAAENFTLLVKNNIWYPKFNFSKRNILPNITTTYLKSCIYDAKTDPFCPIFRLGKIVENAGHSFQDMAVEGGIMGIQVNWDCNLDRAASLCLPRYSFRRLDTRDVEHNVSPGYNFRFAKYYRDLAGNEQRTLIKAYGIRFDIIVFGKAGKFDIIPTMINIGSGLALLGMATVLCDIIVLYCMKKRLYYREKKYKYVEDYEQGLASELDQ

[2] = test system: HSV-1 infected mice (zoster-associated pain in acute phase); experiment: Mouse model of herpes zoster, pain-associated reaction to von Frey filament (0.16 g) after intrathecal administration; assay type: in vivo; conditions: five to seven days after infection
Text: Epidermis of the right hind leg (lower part of knee joint) of shaven female C57BL/6J mice was chopped with a bundle of ten 26G injection needles, and coated with a solution (1×10^6 pfu/site) of herpes simplex virus Type I (HSV-1), which as well as varicella zoster virus, belongs to Herpesviridae (family) (Takasaki I, et al., Anesthesiology, 2002, 96:1168-1174). Seven days after infection, the spinal cord was collected after perfusion of 4% neutral buffered paraformaldehyde, replaced with 30% sucrose solution, embedded with OCT compound to prepare frozen slices. […]
The effect of P2X4 receptor antagonism on zoster-associated pain in acute phase was studied using the mouse model of herpes zoster described in Example 2. […] Threshold of the pain was measured before administration of the drug (AM 9:30 to 10:00 and PM 5:30 to 6:00). Pain-associated reaction on the HSV-1 infection side hindpaw was measured using von Frey Filament (0.16 g). […] The pain reaction was evaluated as follows: • Score 0: No reaction • Score 1: Lifting of hind leg • Score 2: Sharp evasion reaction and flinching of hind leg
Each individual pain score was calculated by averaging six scores. The allodynia score (%) was calculated as the average score of each group by counting the maximum reaction score 2 as 100%.
Threshold of the pain was measured before administration of the drugs (AM 9:30 to 10:00 and PM 5:30 to 6:00).

SMILES | threshold of the pain (paintbrush pain score) ([1]; seven days after infection (acute phase), 30 mg/kg oral, from 1 hour to 4 hours after administration) | threshold of the pain (paintbrush pain score) ([1]; seven days after infection (acute phase), 50 mg/kg oral, from 30 minutes to 8 hours after administration) | threshold of the pain (paintbrush pain score) ([1]; thirty days after infection (postherpetic neuralgia), 30 mg/kg oral) | threshold of the pain (paintbrush pain score) ([1]; thirty days after infection (postherpetic neuralgia), 50 mg/kg oral, 30 minutes, 1 hour and 4 hours after administration) | P2X4 receptor antagonism / inhibition (in words) (P2X4 receptor) | threshold score of the pain (von Frey, allodynia score) ([2]; 10 pmol/mouse intrathecal twice a day) | threshold score of the pain (von Frey, allodynia score) ([2]; 30 pmol/mouse intrathecal twice a day)
Fc1ccc([C@@H]2CCNC[C@H]2COc2ccc3c(c2)OCO3)cc1 [Paroxetine] | significantly improved | continuously improved | did not show any significant improvement | significant improvement was observed | functions as an inhibitor of P2X4 receptor |  | 
O=C1CC(=O)N(c2cccc(-c3noc(=S)[nH]3)c2)c2ccc3ccccc3c2N1.[Na] [Compound A, 5-[3-(5-thioxo-4H-[1,2,4]oxadiazol-3-yl)phenyl]-1H-naphtho[1,2-b][1,4]diazepine-2,4(3H,5H)-dione sodium salt] |  |  |  |  |  | significantly suppressed | significantly suppressed

From US9115123B2, “Preventive or therapeutic agent for pain associated with herpes zoster in acute phase” (Kyushu University, priority 2010, dated 2015)
